Publication PMC8958504 (Journal of Medicinal Chemistry, 2022)

Tests used:
[1] = target: T1, hMT2R (Homo sapiens, UniProt P49286); assay: hMT2R radioligand displacement in transfected CHO cells; conditions: read-out: hMT2R binding affinity (Ki)
T1 construct: host or cells: Chinese hamster ovary cells
T1 sequence (P49286 1-362): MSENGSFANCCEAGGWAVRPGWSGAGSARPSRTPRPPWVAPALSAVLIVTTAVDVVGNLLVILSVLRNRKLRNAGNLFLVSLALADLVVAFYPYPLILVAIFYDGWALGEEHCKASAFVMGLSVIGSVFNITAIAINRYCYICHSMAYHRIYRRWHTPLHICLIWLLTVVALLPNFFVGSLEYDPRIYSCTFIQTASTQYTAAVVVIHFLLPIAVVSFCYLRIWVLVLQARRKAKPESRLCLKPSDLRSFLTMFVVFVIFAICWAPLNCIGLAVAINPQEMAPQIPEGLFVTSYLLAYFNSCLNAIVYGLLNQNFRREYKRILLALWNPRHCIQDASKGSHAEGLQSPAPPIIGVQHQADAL
Description: Assays in MT1R and MT2R were carried out using human receptors that were stably transfected in Chinese hamster ovary cells (https://www.eurofins.fr, catalog refs. 1538 and 1687). The QR2 experiments were performed in membrane homogenates of hamster brains (https://www.eurofins.fr, catalog ref. 0088). […] First, radioligand displacement was measured at a fixed compound concentration (10 μM) in each receptor. […] (E)-Resveratrol and melatonin were tested for comparative purposes.

[2] = target: T2, QR2 (Mesocricetus auratus, UniProt A0ABM2YAB8); assay: biochemical; conditions: for inhibition at 10 µM: read-out: QR2 percentage of inhibition (in brackets)
T2 sequence (A0ABM2YAB8 1-231): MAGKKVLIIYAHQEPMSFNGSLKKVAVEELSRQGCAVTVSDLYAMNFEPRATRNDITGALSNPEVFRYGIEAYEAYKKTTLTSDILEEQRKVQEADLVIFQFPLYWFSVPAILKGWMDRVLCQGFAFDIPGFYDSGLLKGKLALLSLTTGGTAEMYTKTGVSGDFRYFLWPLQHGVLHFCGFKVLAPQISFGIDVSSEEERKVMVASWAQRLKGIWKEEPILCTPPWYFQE
Description: The QR2 experiments were performed in membrane homogenates of hamster brains (https://www.eurofins.fr, catalog ref. 0088). […] First, radioligand displacement was measured at a fixed compound concentration (10 μM) in each receptor.

[3] = Oxygen radical absorbance capacity (ORAC-FL) assay; conditions: trolox = 1.0
Description: 2,2′-Azobis-(amidinopropane) dihydrochloride (AAPH), trolox, and fluorescein (FL) were purchased from Sigma-Aldrich. The reaction was carried out in a 75 mM phosphate buffer (pH 7.4), and the final reaction mixture was 200 μL. […] Antioxidant curves (fluorescence vs time) were first normalized to the curve of the blank corresponding to the same assay, and the area under the curve (AUC) of fluorescence decay was calculated. The net AUC corresponding to a sample was calculated by subtracting the AUC corresponding to the blank. Regression equations between the net AUC and antioxidant concentration were calculated for all the samples.

[4] = in vitro; format: in vitro ADME; conditions: for Papp at 240 min, 100 μg mL^–1: PAMPA, pH 7.4, class from PAMPA-BBB Pe, read-out: CNS-permeability prediction; for PAMPA-BBB (Pe, 10^–6 cm s^–1): porcine brain lipid, PBS/EtOH (70:30), 240 min, 25 °C
[5] = target: T3, hMAO-A (Homo sapiens, UniProt P21397); assay: biochemical; conditions: read-out: hMAO-A (IC50); recombinant hMAO-A, p-tyramine substrate
T3 sequence (P21397 1-527): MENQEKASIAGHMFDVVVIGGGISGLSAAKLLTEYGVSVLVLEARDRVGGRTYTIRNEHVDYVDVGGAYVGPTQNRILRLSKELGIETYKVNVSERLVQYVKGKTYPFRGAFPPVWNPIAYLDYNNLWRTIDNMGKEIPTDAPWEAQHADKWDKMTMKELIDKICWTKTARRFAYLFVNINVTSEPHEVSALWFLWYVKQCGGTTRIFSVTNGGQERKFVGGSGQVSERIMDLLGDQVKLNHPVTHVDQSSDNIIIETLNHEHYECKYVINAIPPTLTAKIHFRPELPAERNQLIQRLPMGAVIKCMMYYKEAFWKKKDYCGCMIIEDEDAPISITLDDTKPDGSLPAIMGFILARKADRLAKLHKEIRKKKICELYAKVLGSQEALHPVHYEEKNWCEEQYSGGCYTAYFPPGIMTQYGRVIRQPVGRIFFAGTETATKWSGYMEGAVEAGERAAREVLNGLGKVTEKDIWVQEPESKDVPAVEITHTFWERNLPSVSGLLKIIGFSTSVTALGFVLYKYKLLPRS
Description: (§1) The hMAO-A/B inhibition of all compounds was determined using the Amplex Red MAO assay kit.
(§2) Assays were performed following the general procedure previously described.[98] […] The specific fluorescence emission was calculated after subtracting the background activity, which was determined from wells containing all components except the hMAO isoforms, which were replaced with PBS.

[6] = target: T4, hMAO-B (Homo sapiens, UniProt P27338); assay: biochemical; conditions: read-out: hMAO-B (IC50); recombinant hMAO-B, p-tyramine substrate
T4 sequence (P27338 1-520): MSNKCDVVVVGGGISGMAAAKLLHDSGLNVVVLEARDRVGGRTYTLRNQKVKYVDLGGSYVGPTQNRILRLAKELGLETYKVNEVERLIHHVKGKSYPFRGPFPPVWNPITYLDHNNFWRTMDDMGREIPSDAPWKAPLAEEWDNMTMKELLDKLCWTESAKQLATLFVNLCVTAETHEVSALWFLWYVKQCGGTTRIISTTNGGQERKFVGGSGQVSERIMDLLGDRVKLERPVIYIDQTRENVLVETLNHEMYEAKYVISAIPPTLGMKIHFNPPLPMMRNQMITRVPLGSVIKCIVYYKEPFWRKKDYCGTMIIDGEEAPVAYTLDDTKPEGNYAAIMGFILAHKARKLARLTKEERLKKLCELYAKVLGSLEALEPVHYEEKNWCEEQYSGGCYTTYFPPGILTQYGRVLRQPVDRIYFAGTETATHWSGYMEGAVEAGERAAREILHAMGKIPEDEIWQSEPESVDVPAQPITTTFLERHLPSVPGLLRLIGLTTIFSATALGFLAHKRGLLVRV
Description: as §1, §2

[7] = system: rat primary cortical neurons; assay: Neuroprotection against OA-induced toxicity in rat primary cortical neuronal cultures (MTT); conditions: compound 1 μM, OA 10 nM
[8] = system: NRF2-ARE signaling pathway; assay: cells; format: cell-based; conditions: concentration required to double luciferase activity, AREc32 cells, 24 h
Description: AREc32 cells were plated in 96-well white plates (2 × 10^4 cells/well). […]. The AREc32 cells constitutively express the plasmid pGL-8xARE that implements eight copies of the EpRE sequences, followed by the luciferase reporter gene. Therefore, NRF2 induction is related to the activation of EpRE sequences, expressing luciferase at the same extent as EpRE sequences are activated. The Luciferase Assay System (Promega E1500) was used according to the provider’s protocol, and luminescence was quantified in an Orion II microplate luminometer (Berthold, Germany). Fold induction of luciferase activity was normalized to basal conditions. Data are expressed as CD values, expressing the concentration required to double the luciferase activity. CD values were calculated from dose–response curves generated from the fold induction of control conditions versus inducer concentration and fitted by nonlinear regression and data interpolated to twofold induction concentration.[68]

[9] = system: human neuroblastoma SH-SY5Y cell line; assay: Cell viability per se in SH-SY5Y cells (MTT); conditions: 100 μM, 24 h
Description: The cells from the 3rd to 12th passage were seeded at a density of 80,000 cells/well in 96-well plates and were used to assess the properties of our compounds.
After treatment, the SH-SY5Y cells, rat primary neuronal cultures, and hippocampal slices were incubated for 90 min with tetrazolium salt MTT (0.5 mg/mL) solution. This assay is based on the reduction of MTT (yellow salt) to purple insoluble formazan crystals by oxidoreductase enzymes from living cells. Thereafter, in order to solubilize the formazan crystal, the cells/slices were incubated for another 45 min in dimethyl sulfoxide (DMSO). […] The basal absorbance was set to 100%, and the results were normalized to basal conditions.

[10] = system: adult mice NSCs; assay: Neurogenic studies in SGZ-derived neurospheres; format: cell-based, mouse; conditions: 10 μM, data not shown
Description: Adult mice NSCs were isolated from SGZ of the dentate gyrus of the hippocampus and grown as free-floating neurospheres (NS).[72],[78] The neurogenic potential of each compound was determined using fluorescence confocal microscopy by quantifying the expression of two well-known neuronal markers: human β-III-tubulin (TuJ-1 clone) and microtubule-associated protein 2 (MAP-2). TuJ-1 is expressed in immature neurons, whereas the expression of MAP-2 indicates a consolidated mature neuronal stage.[79] Given that neurogenesis involves not only the proliferation of NSC but also the migration of newly generated cells, the greatest migration distance promoted by each compound was also measured (Figure 8).
Adult male C57BL/6 mice (3 months old) were used in order to determine neurogenesis activity. […] DAPI staining was used as a nuclear marker. Fluorescent representative images were acquired with a Nikon fluorescence microscope 90i coupled to a digital camera Qi. The microscope configuration was adjusted to produce the optimum signal-to-noise ratio. […] Quantification was undertaken using the image analySIS software (Soft Imaging System Corp., Münster, Germany) and normalized to total nuclei (DAPI-stained). The intensity of immunostaining of neurites from TuJ1-labeled cells and the number of MAP-2-positive cells were estimated from nine neurospheres per condition over three independent experiments. The outgrowth of the neurosphere cells was examined under a phase-contrast microscope and the farthest distance of cell migration was calculated from the edge of the sphere. At least 10 plated neurospheres per treatment were analyzed.

[11] = system: mouse hippocampal slices; conditions: 1 μM, OA 1 μM, 6 h
Description: Once the treatment was ended, the cell viability was measured by the MTT method, cell death with the fluorescent probe PI (1 μg/mL), and ROS production with the fluorescent probe H2DCFDA (10 μL/mL).
Fluorescence from whole slices was measured as the mean intensity with an inverted Nikon eclipse T2000-U microscope (Nikon Instruments). […] The results were normalized to the basal condition, which was considered as 100%. Image analysis was performed using Fiji software.

Compound | Ki [1] [µM] | IC50 [2] [µM] | inhibition at 10 µM [2] [%] | ORAC (trolox equiv) [3] [trolox equiv] | Papp at 240 min, 100 μg mL^–1 [4] [nm/s] | PAMPA-BBB (Pe, 10^–6 cm s^–1) [4] | IC50 [5] [µM] | IC50 [6] [µM] | neuroprotection against OA-induced toxicity [7] | NRF2 (CD, μM) [8] [µM] | reduction of cell viability [9] | capacity to differentiate NSCs [10] | cell viability (MTT) [11]
C#CCNC(=O)/C=C/c1cccc(OC)c1 [6d, (2E)-3-(3-Methoxyphenyl)-N-(prop-2-yn-1-yl)prop-2-enamide] | 1.4 | ~10 | 76 | <0.1 | > 40 | 4.1 ± 0.2 10^–6 cm s^–1 | > 50 | > 50 |  |  |  |  | 
C#CCn1nc(/C=C/c2ccccc2)oc1=O [4a, 5-[(E)-2-Phenylethenyl]-3-(prop-2-yn-1-yl)-1,3,4-oxadiazol-2(3H)-one] |  | > 10 | 44 | <0.1 | > 40 | 13.6 ± 0.5 10^–6 cm s^–1 | > 50 | 9.87 ± 1.22 | not able to significantly reduce neuronal death | 16.9 ± 0.4 | around 30% | poor capacity to differentiate NSCs | 
Oc1ccc(/C=C/c2cc(O)cc(O)c2)cc1 [(E)-resveratrol, reference compound] |  |  |  |  |  |  |  | 29.9 ± 1.8 |  | 21.0 ± 2.0 | over 50% |  | significantly increased the cell viability to almost basal levels, in a similar way to resveratrol treatment
